Measurements: BindingDB's records for PubMed 35063895 (Tokyo Medical and Dental University, 2022)
Values joined by “and” are separate entries in the source; they are usually repeats but may differ in a detail not shown here. Equal values may be shown once.

Assay: CD4 mimetic activity at gp120 in HIV-1 KP-5mvcR infected in human TZM-bl cells assessed as inhibition of viral entry by measuring reduction in RLU by single round assay

Row | Compound | IC50
1 | CC1(C)CC(NC(=O)C(=O)Nc2ccc(F)nc2)CC(C)(C)N1 | 5.1 µM
2 | N=C(N)NCCCCC(=O)NCCN1CCC(NC(=O)C(=O)Nc2ccc(Cl)cc2)CC12CCCCC2 (stereo not drawn) | 0.29 µM and 1.5 µM
3 | COCCOCCOCCOCCOCCOCCOCCOCCOCCOCCOCCOCCNC(=O)CCC(=O)N[C@@H](CCCNC(=N)N)C(=O)NCCN1CCC(NC(=O)C(=O)Nc2ccc(Cl)cc2)CC12CCCCC2 (stereo partly drawn) | 6.7 µM
4 | COCCOCCOCCOCCOCCOCCOCCOCCOCCOCCOCCOCCNC(=O)CCC(=O)N[C@@H](CCCNC(=N)N)C(=O)NCCN1CCC(NC(=O)C(=O)Nc2ccc(F)nc2)CC12CCCCC2 (stereo partly drawn) | > 100 µM
5 | N=C(N)NCCCCC(=O)NCCN1CCC(NC(=O)C(=O)Nc2cncc(F)c2)CC12CCCCC2 (stereo not drawn) | > 100 µM
6 | N=C(N)NCCCCC(=O)NCCN1CCC(NC(=O)CNc2ccc(Cl)cn2)CC1 | > 100 µM
7 | N=C(N)NCCCCC(=O)NCCN1CCC(NC(=O)C(=O)Nc2ccc(Cl)cn2)CC1 | > 100 µM
8 | CC1(C)CC(NC(=O)C(=O)Nc2ccc(Cl)cc2)CC(C)(C)N1 [N-(4-chlorophenyl)-N'-(2,2,6,6-tetramethylpiperidin-4-yl)-oxalamide] | 0.27 µM
